Measured values: patent EP3419609B1, “TREATMENT OF ALKAPTONURIA AND TYROSINEMIA TYPE 1” (Università degli Studi di Siena, priority 2016, dated 2017)
Read-outs that look alike come from different tables or passages of the source.

Key:
[1] = alkaptonuria patients, over the course of 3 years; cited from earlier work
human fibroblasts (HFb) = test: Tyrosine dosage: intracellular tyrosine in HFb by LC-MS-MS; type: cell-based; settings: for slope of dose-response curve of intracellular tyrosine: tyrosine ng in 9×10^4 cells versus concentration, Figure 3A
Experimental: Intracellular tyrosine was calculated in HFb (9×10^4 cells/well) treated for 72 h with the compounds under assessment at various concentrations (10^-8, 10^-7, 10^-6 and 10^-5 M); controls were performed using the carrier at the concentration corresponding to the highest dose of the compound under assessment. At the end of treatment, the cells were recovered by scraping in the presence of norvaline (10^-3 M, used as internal standard, Sigma-Aldrich cod. N7627) and cold methanol (40 µL, Sigma-Aldrich cod. 34860), and subsequently lysed by cycles of freezing/thawing in a bath of dry ice/nitrogen. The lysate was centrifuged (6000g for 5 min) and the supernatant was then recovered, evaporated and re-suspended with 100 µL of 0.05% formic acid. Each sample was analysed by LC-MS-MS. In particular, the analysis was performed with a chromatographic instrument manufactured by Varian (Varian Inc.) run by the software Varian MS Workstation System Control Vers. […] Subsequently, the concentration of each compound was correlated with the amount of intracellular tyrosine contained in 9×10^4 cells and the resulting dose-response curve was obtained using the Origin® - Data Analysis and Graphing software by means of a linear type interpolating curve.
(§1) LD50 was evaluated in vitro using the MTT cell viability assay for the first time on human cells, in particular on primary human fibroblasts (HFb). […] Intracellular tyrosine was measured in HFb by LC-MS-MS analysis.

[2] = test system: primary human fibroblasts (HFb); test: in vitro; type: cell-based
Experimental: (§2) 12×10^4 primary human fibroblasts (ATCC, cat PCS-201-012) were treated with compounds at various concentrations (10^-7 M, 10^-6 M, 10^-5 M, 10^-4 M, 10^-3 M) for 24 and 144 h. HFb were cultured as described in [21]. Cellular viability was quantified by the MTT assay (Sigma-Aldrich cod. M5655) as described in [22]. Controls were performed treating the cells with vehicle (DMSO) alone. Calculation of LD50 was performed by means of the Origin® - Data Analysis and Graphing software using a sigmoid type interpolating curve.
as §1

4-HPPD = biological target: T1, 4-HPPD (Rattus norvegicus, UniProt P32755); test: Determination of 4-HPPD activity by oxygen consumption (SDR SensorDish Reader) in rat liver cytosol; type: biochemical, male Wistar rat
T1 construct: from tissue; host or cells: liver cytosol of a male Wistar rat
T1 sequence (P32755 whole entry): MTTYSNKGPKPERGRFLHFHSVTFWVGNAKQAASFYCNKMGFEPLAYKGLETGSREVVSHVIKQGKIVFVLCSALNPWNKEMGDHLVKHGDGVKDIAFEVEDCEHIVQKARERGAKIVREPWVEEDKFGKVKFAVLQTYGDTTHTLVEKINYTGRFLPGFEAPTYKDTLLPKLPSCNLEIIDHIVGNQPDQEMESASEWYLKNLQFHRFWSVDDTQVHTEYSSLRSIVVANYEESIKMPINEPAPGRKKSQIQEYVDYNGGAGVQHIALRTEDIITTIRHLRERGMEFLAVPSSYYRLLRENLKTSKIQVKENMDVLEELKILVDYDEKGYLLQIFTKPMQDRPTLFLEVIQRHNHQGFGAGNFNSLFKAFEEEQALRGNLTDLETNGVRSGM
Experimental: 4-HPPD activity was evaluated in the liver cytosol of a male Wistar rat by monitoring oxygen consumption through the use of the SDR SensorDish® Reader (Presens, Precision Sensing GmbH, Regensburg, Germany). Briefly, a special test tube with an oxygen sensor placed on the bottom was filled with 0.2 M sodium phosphate buffer with pH 7.4, 1.7 mM ascorbic acid (used as a cofactor) and 10.92 mg of rat enzyme preparation (4-HPPD source). The mixture was equilibrated at 37°C for 5 min. and the reaction was started by the addition of substrate ([…], Sigma-Aldrich cod. SAE0003). […] The percentage of inhibition of enzymatic activity was calculated as the ratio of the slopes (decrease of the concentration of O2 (µmol/L) per min.) of the samples containing the inhibitor versus the untreated controls corrected with the negative control values. The IC50 values were calculated by means of regression analysis in the range of tested concentrations by means of the Origin® - Data Analysis and Graphing software using a sigmoid type interpolating curve and plotting on the x-axis the concentrations of the compounds and on the y-axis oxygen consumption values expressed as a percentage of 4-HPPD inhibition, the reduction of oxygen being correlated with inhibition of the enzyme.
4-HPPD inhibition was determined in the cytosolic extract of rat liver (source of the enzyme), by evaluation of enzymatic consumption of oxygen using the SDR SensorDish ® Reader, and was expressed as an IC50 value.

in vitro = type: cell-based; settings: after 144 h of treatment, concentration 1 mM; read-out: viability of HFb
Experimental: as §2, §1

[3] = rat liver cytosol, oxygen consumption, read-out: IC50
[4] = rat liver cytosol, oxygen consumption, read-out: IC50 (4-HPPD inhibitory activity)
[5] = rat liver cytosol, oxygen consumption

## O=C1CCCC(=O)C1C(=O)c1ccc(C(F)(F)F)cc1[N+](=O)[O-] [Compound 1, 2-(2-nitro-4-(trifluoromethyl)benzoyl)cyclohexane-1,3-dione, reference compound]
[1]
  reduction of HGA in urine and plasma: 95%
Human fibroblasts (HFb); 72 h, concentration 10^-5 M
  intracellular tyrosine increased compared to untreated HFb: ~32%
Human fibroblasts (HFb); 72 h, concentration 10^-6 M
  intracellular tyrosine increased compared to untreated HFb: about 21%
Human fibroblasts (HFb); 72 h
  slope of dose-response curve of intracellular tyrosine: 5.47
[2]; human, 24 h
  LD50 24 hours: >1 mM [c]
  LD50 at 24 h: > 10^-3 M
[2]; human, 144 h
  LD50 144 hours: ~1 mM
  LD50 at 144 h: 10^-3 M

## CS(=O)(=O)c1ccc(C(=O)C2C(=O)C(O)CC(O)C2=O)c(Cl)c1COCC(F)(F)F (centres unmarked) [Compound 2, 2-[2-Chloro-4-methylsulfonyl-3-(2,2,2-trifluoroetoxyimethyl)benzoyl]-4,6-dihydroxy-cyclohexane-1,3-dione]
4-HPPD; [3]
  IC50: 227 ± 9 nM
[2]; human, 24 h
  LD50 24 hours: 0.48 ± 0.04 mM
[2]; human, 144 h
  LD50 144 hours: 0.48 ± 0.03 mM

## CS(=O)(=O)c1ccc(C(=O)C2C(=O)CCCC2=O)c(Cl)c1COCC(F)(F)F [Compound 3, 2-[2-Chloro-4-methylsulfonyl-3-(2,2,2-trifluoroetoxymethyl)benzoyl]cyclohexane-1,3-dione]
4-HPPD; [3]
  IC50: 152 ± 6 nM
4-HPPD; [4]
  IC50: 152 nM
Human fibroblasts (HFb); 72 h
  slope of dose-response curve of intracellular tyrosine: 1.89
[2]; HFb, MTT, 24 hours treatment
  LD50 24 hours: >1 mM [c]
[2]; HFb, MTT, 144 hours treatment
  LD50 144 hours: >1 mM [c]
[2]; HFb, treatment time not given
  LD50: greater than 10^-3 M

## CS(=O)(=O)c1ccc(C(=O)C2C(=O)CCCC2=O)c([N+](=O)[O-])c1 [Compound 4, 2-(4-Methylsulfonyl-2-nitrobenzoyl)-cyclohexane-1,3-dione]
4-HPPD; [3]
  IC50: 36.7 ± 9.7 nM
4-HPPD; [4]
  IC50: 36.7 nM
Human fibroblasts (HFb); 72 h, highest inhibitor concentration, p<0.01
  tyrosine level lower than in the control: about 14%
Human fibroblasts (HFb); 72 h, lowest inhibitor concentration analysed, p<0.01
  intracellular tyrosine levels higher than in the control group: about 17%
[2]; HFb, MTT, 24 hours treatment
  LD50 24 hours: 1.1 ± 0.1 mM
[2]; HFb, MTT, 144 hours treatment
  LD50 144 hours: >1 mM [c]

## CS(=O)(=O)c1cc(C(F)(F)F)ccc1C(=O)c1cnoc1C1CC1 [Compound 5]
4-HPPD
  IC50: 399 ± 19 nM
[2]; HFb, MTT, 24 hours treatment
  LD50 24 hours: >1 mM [c]
[2]; HFb, MTT, 144 hours treatment
  LD50 144 hours: 0.11 ± 0.07 mM

## CC1(C)CC(=O)C(C(=O)c2ccc([N+](=O)[O-])cc2Cl)C(=O)C1 [Compound 6, 2-(2-chloro-4-nitro-benzoyl)-5,5-dimethyl-cyclohexane-1,3-dione]
4-HPPD; rat liver cytosol 4-HPPD
  residual activity of the enzyme: ~30%
4-HPPD; [3]
  IC50: 36.4 ± 9.3 nM
4-HPPD; rat liver cytosol, read-out: IC50
  IC50: ~36.4 nM
Human fibroblasts (HFb); highest concentration tested, treatment for three days, p<0.01
  intracellular tyrosine accumulation lower than that found for compound 1: about 7%
[2]; human, 24 h
  LD50 24 hours: >1 mM [c]
[2]; human, 144 h
  LD50 144 hours: >1 mM [c]
In vitro
  viability at 144 h, 1 mM: ~75%

## COC(=O)C1C(=O)C(C(=O)c2ccc([N+](=O)[O-])cc2)C(=O)CC1(C)C (centres unmarked) [Compound 7, 2,2-Dimethyl-5-(4-nitrobenzoyl)-4,6-dioxycyclohexane methyl carboxylate]
4-HPPD; [5]
  IC50: no inhibition
[2]; human, 24 h
  LD50 24 hours: 0.63 ± 0.12 mM
[2]; human, 144 h
  LD50 144 hours: >1 mM [c]

## CC1(C)CC(=O)C(C(=O)c2ccccc2)C(=O)C1Cl (centres unmarked) [Compound 8, 2-Benzoyl-4-chloro-5,5-dimethyl-cyclohexane-1,3-dione]
4-HPPD; [5]
  IC50: no inhibition
[2]; human, 24 h
  LD50 24 hours: >1 mM [c]
[2]; human, 144 h
  LD50 144 hours: >1 mM [c]

## CC1(C)CC(=O)C(C(=O)c2ccccc2)C(=O)C1 [Compound 9, 2-Benzoyl-5,5-dimethyl-cyclohexane-1,3-dione]
4-HPPD; [5]
  IC50: no inhibition
[2]; human, 24 h
  LD50 24 hours: >1 mM [c]
[2]; human, 144 h
  LD50 144 hours: >1 mM [c]

## Cc1cc(C2C(=O)C(C(=O)c3ccc(Cl)cc3)C(=O)CC2(C)C)on1 (centres unmarked) [Compound 10, 2-(4-chlorobenzoyl)-5,5-dimethyl-4-(3-methyl-isoxazol-5-yl)-cyclohexane-1,3-dione]
4-HPPD; [3]
  IC50: 59900 ± 1800 nM
[2]; human, 24 h
  LD50 24 hours: >1 mM [c]
[2]; human, 144 h
  LD50 144 hours: 0.82 ± 0.20 mM

## CC1(C)C(Cl)C(=O)C(C(=O)c2ccccc2)C(=O)C1Cl (centres unmarked) [Compound 11, 2-Benzoyl-4,6-dichloro-5,5-dimethyl-cyclohexane-1,3-dione]
4-HPPD; [3]
  IC50: 192 ± 2 nM
[2]; human, 24 h
  LD50 24 hours: >1 mM [c]
[2]; human, 144 h
  LD50 144 hours: 0.29 ± 0.08 mM

## O=C1CCC(c2ccccc2)C(=O)C1C(=O)c1ccc(Cl)cc1Cl (centres unmarked) [Compound 13, 2-(2,4-dichlorobenzoyl) -4-phenyl-cyclohexane-1,3-dione]
4-HPPD; [3]
  IC50: 279 ± 6 nM
[2]; human, 24 h
  LD50 24 hours: >1 mM [c]
[2]; human, 144 h
  LD50 144 hours: 0.36 ± 0.15 mM

## CC1(C)CC(=O)C(C(=O)c2ccc(C(F)(F)F)cc2Cl)C(=O)C1 [Compound 14, 2-(2-Chloro-4-trifluoromethylbenzoyl)-5,5-dimethyl-cyclohexane-1,3-dione]
4-HPPD; [3]
  IC50: 10500 ± 3700 nM
[2]
  cytotoxicity (in words): not cytotoxic

## CC1(C)CC(=O)C(C(=O)c2ccc(C(F)(F)F)cc2[N+](=O)[O-])C(=O)C1 [Compound 15, 2-(2-Nitro-4-trifluoromethylbenzoyl)-5,5-dimethyl-cyclohexane-1,3-dione]
4-HPPD
  IC50: 61.6 ± 7.4 nM
[2]; HFb, LD50 24 h
  cytotoxicity (in words): not cytotoxic
[2]; HFb, MTT, 24 hours treatment
  LD50 24 hours: > 0.01 mM
